In ChEMBL document CHEMBL5252648, “Design, synthesis and bioactivity evaluation of a series of quinazolinone derivatives as potent PI3Kγ antagonist” (Bioorg Med Chem, 2023) one finds IC50 and Activity data, which are given here for one compound.

SMILES strings stand for the structures.

Experiment [1] has as its target Phosphatidylinositol 4,5-bisphosphate 3-kinase catalytic subunit beta isoform (Homo sapiens, UniProt P42338). Description: Antagonist activity at PI3Kbeta (unknown origin) using PIP2 as substrate in presence of ATP incubated for 30 to 60 mins by ADP-glo based luminescence assay.
Experiment [2] has as its system Jurkat. The experiment is described as follows: Downregulation of phosphorylated AKT protein expression in human Jurkat cells measured for 3 hrs. The class given is functional, cell-based. Particulars: dose 0.1-10 µM.
Experiment [3] deals with Jurkat. Description: Induction of apoptosis against human Jurkat cells assessed as late apoptotic cells at 0.1 uM measured for 24 hrs by Annexin V-FITC/propidium iodide staining based flow cytometry (reference value: 0.00%). The experiment is classed as functional. A general note: Flow cytometry measures light scatter and fluorescence of single cells or particles in a stream.

For experiment [4], the system named is Jurkat. Description: Induction of apoptosis against human Jurkat cells assessed as early apoptotic cells at 0.1 uM measured for 24 hrs by Annexin V-FITC/propidium iodide staining based flow cytometry (reference value: 5.76%). The class given is functional.

Chain of Phosphatidylinositol 4,5-bisphosphate 3-kinase catalytic subunit beta isoform (P42338 whole entry, canonical isoform): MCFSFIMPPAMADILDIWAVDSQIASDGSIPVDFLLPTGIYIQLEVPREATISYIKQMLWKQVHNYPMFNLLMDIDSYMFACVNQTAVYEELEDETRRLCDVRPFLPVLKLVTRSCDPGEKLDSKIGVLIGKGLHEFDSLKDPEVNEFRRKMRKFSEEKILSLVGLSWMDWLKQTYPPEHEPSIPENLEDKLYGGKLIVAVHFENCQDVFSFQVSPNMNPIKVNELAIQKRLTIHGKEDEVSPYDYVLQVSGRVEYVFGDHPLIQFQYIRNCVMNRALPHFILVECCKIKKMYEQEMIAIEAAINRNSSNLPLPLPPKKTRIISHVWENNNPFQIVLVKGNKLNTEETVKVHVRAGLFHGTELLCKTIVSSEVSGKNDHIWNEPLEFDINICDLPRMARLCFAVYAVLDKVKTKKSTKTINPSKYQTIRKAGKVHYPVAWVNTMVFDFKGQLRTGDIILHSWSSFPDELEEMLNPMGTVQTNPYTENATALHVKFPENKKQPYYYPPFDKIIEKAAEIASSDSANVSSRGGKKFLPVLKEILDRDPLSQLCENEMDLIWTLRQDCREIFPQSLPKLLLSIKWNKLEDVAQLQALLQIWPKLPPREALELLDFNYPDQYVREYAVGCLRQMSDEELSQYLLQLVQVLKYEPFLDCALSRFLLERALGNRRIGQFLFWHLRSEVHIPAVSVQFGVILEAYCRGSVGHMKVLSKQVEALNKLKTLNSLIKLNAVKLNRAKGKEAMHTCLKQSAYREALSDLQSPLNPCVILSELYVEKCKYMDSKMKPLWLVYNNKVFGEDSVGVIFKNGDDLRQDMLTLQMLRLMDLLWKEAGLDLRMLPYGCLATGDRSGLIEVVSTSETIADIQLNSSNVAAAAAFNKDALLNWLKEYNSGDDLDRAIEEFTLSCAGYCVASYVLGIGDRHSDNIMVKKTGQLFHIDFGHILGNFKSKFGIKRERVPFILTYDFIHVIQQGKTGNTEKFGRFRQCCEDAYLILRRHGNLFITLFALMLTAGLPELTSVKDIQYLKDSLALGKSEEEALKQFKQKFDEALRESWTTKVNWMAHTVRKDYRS

The IC50 is the concentration that gives 50% inhibition. As for `COc1ccc(C#Cc2cccc3cc(C(C)Nc4ncnc5[nH]cnc45)n(-c4ccccc4)c(=O)c23)cc1` (centres undefined), the IC50 in experiment [1] was determined as 0.109 µM. Also, the Activity result in the experiment with Jurkat [2] was “Dose-Dependent Effect”; with Jurkat [3] it was 0.025%; in the experiment on Jurkat [4], 10.9%.
